# Starred links: 1 amine or outer side, 2 acyl side, 3 side chain; linkers in the order of their positions; H or OH if unused. Positions of bridges follow the written chain, without caps; N, C: chain ends. Non-standard residues stand in square brackets, D forms with d. Residues, ends and D or L forms follow the SMILES beside them. *: point of attachment. X22 = CCCCCCCCCCCCCC(=O)N[C@H](CCC(=O)NCCCC[C@H](NC(=O)CCC(=O)NCCCOCCOCCOCCCN*)C(N)=O)C(=O)O; Trp(1-CH2COOH) = N[C@@H](Cc1cn(CC(=O)O)c2ccccc12)C(=O)O; X14 = O=C(O)CCCCCCCCCCNC(=O)CCC(=O)NCCCOCCOCCOCCCN*; X9 = O=C(O)CCCCCCCCCCCCCCCCC(=O)N[C@@H](CCN*)C(=O)O; βAsp = O=C(O)[C@H](CC(=O)[*:2])N[*:1]; Stearoyl = CCCCCCCCCCCCCCCCCC(=O)*; Hyp = O=C(O)[C@@H]1C[C@@H](O)CN1; NMeNle = CCCC[C@H](NC)C(=O)O; Pip = O=C(O)[C@@H]1CCCCN1; NMeA = CN[C@@H](C)C(=O)O; Pra = C#CC[C@H](N)C(=O)O; Aun = NCCCCCCCCCCC(=O)O; Dab = NCC[C@H](N)C(=O)O; Dap = NC[C@H](N)C(=O)O; Ava = NCCCCC(=O)O
# Target: T1, PD-L1 (Homo sapiens, UniProt Q9NZQ7)
# T1 construct: hPDL1(19-239)-TVMV-His; made in house; host or cells: HEK293T
# Assay: PD-1/PD-L1 Homogenous Time-Resolved Fluorescence (HTRF) binding assay (PD-1-Ig/PD-L1-His)
# Details: not given
# Method in brief: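 HTRF competition in dPBS with 0.1% BSA and 0.05% Tween-20: 20 nM PD-1-Ig added after 15 min compound pre-incubation with 10 nM PD-L1-His, then another 15 min. Signal (665/620 nm) after 30 min with APC anti-His (20 nM) and Eu anti-Ig (1 nM).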
# T1 sequence (Q9NZQ7 with tags, fused parts or gaps): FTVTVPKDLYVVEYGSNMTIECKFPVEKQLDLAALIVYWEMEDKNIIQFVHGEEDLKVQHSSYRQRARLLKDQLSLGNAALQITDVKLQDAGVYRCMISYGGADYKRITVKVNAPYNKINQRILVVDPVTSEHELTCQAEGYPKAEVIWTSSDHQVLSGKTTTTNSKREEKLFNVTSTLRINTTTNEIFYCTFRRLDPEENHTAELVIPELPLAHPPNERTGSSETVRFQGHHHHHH
row,Structure (SMILES),IC50 [nM]
1,CCCC[C@H]1C(=O)N(C)[C@@H](CCCC)C(=O)N[C@@H](CCCNC(=N)N)C(=O)N[C@H](C(=O)NCC(=O)N[C@@H](Cc2cn(CCCCCNC(=O)CCC(=O)Oc3c(C)c(C)c4c(c3C)CC[C@@](C)(CCC[C@H](C)CCC[C@H](C)CCCC(C)C)O4)nn2)C(N)=O)CSCC(=O)N[C@@H](Cc2ccc(O)cc2)C(=O)N(C)[C@@H](C)C(=O)N[C@@H](CC(N)=O)C(=O)N2CCC[C@H]2C(=O)N[C@@H](CN)C(=O)N[C@@H](CC(C)C)C(=O)N2C[C@H](O)C[C@H]2C(=O)N[C@@H](Cc2c[nH]c3ccccc23)C(=O)N[C@@H](CO)C(=O)N[C@@H](Cc2csc3ccccc23)C(=O)N1C [Example 14058],100 to 1600
2,CCCC[C@H]1C(=O)N(C)[C@@H](CCCC)C(=O)N[C@@H](CCC(=O)O)C(=O)N[C@H](C(=O)NCC(=O)N[C@@H](Cc2cn(CCOCCOCCOCCOC(=O)CCC(=O)Oc3c(C)c(C)c4c(c3C)CC[C@@](C)(CCC[C@H](C)CCC[C@H](C)CCCC(C)C)O4)nn2)C(=O)NCC(N)=O)CSCC(=O)N[C@@H](Cc2ccc(O)cc2)C(=O)N(C)[C@@H](C)C(=O)N[C@@H](CC(=O)O)C(=O)N2CCC[C@H]2C(=O)N[C@@H](Cc2c[nH]cn2)C(=O)N[C@@H](CCCCN)C(=O)N2C[C@H](O)C[C@H]2C(=O)N[C@@H](Cc2c[nH]c3ccccc23)C(=O)N[C@@H](CCCCN)C(=O)N[C@@H](Cc2c[nH]c3ccccc23)C(=O)N1C [Example 14060],100 to 1600

# Same assay, conditions: inhibition of PD-1-Ig binding to PD-L1-TVMV-His; value given as number; read-out: HTRF IC50
row,Structure (SMILES),IC50 [nM]
1,CCCC[C@H]1C(=O)N(C)[C@@H](CCCC)C(=O)N[C@@H](CC(C)C)C(=O)N[C@H](C(=O)NCCCOCCOCCOCCCNC(=O)CCC(=O)NCCCCCCCCCCC(=O)O)CSCC(=O)N[C@@H](Cc2ccc(O)cc2)C(=O)N(C)[C@@H](C)C(=O)N[C@@H](CC(N)=O)C(=O)N2CCC[C@H]2C(=O)N[C@@H](CN)C(=O)N[C@@H](CCC(N)=O)C(=O)N2C[C@H](O)C[C@H]2C(=O)N[C@@H](Cc2c[nH]c3ccccc23)C(=O)N[C@@H](CO)C(=O)N[C@@H](Cc2cn(CC(=O)O)c3ccccc23)C(=O)N1C [Example 11086] ({CH2CO}-Y[NMeA]NP[Dap]Q[Hyp]WS[Trp(1-CH2COOH)][NMeNle][NMeNle]LC-X14; thioether N-14),19
2,CCCCCCCCCCCCCCCCCC(=O)NCCCC[C@H](NC(=O)[C@@H]1CSCC(=O)N[C@@H](Cc2ccc(O)cc2)C(=O)N(C)[C@@H](C)C(=O)N[C@@H](CC(N)=O)C(=O)N2CCC[C@H]2C(=O)N[C@@H](CCN)C(=O)N[C@@H](CC(C)C)C(=O)N2C[C@H](O)C[C@H]2C(=O)N[C@@H](Cc2c[nH]c3ccccc23)C(=O)N[C@@H](CO)C(=O)N[C@@H](Cc2c[nH]c3ccccc23)C(=O)N(C)[C@@H](CCCC)C(=O)N(C)[C@@H](CCCC)C(=O)N[C@@H](CCCNC(=N)N)C(=O)N1)C(N)=O [Example 11001] ({CH2CO}-Y[NMeA]NP[Dab]L[Hyp]WSW[NMeNle][NMeNle]RCK(Stearoyl)-NH2; thioether N-14),952

# Same assay, conditions: inhibition of PD-1-Ig binding to PD-L1-TVMV-His; value given as range class; read-out: HTRF IC50
row,Structure (SMILES),IC50 [nM]
1,C#CC[C@H](NC(=O)CNC(=O)CNC(=O)CNC(=O)[C@@H]1CSCC(=O)N[C@@H](Cc2ccc(O)cc2)C(=O)N(C)[C@@H](C)C(=O)N[C@@H](CC(N)=O)C(=O)N2CCC[C@H]2C(=O)N[C@@H](CN)C(=O)N[C@@H](CC(C)C)C(=O)N2C[C@H](O)C[C@H]2C(=O)N[C@@H](Cc2c[nH]c3ccccc23)C(=O)N[C@@H](CCN)C(=O)N[C@@H](Cc2cn(CC(=O)O)c3ccccc23)C(=O)N(C)[C@@H](CCCC)C(=O)N(C)[C@@H](CCCC)C(=O)N[C@@H](CC(C)C)C(=O)N1)C(=O)O [INT130AB] ({CH2CO}-Y[NMeA]NP[Dap]L[Hyp]W[Dab][Trp(1-CH2COOH)][NMeNle][NMeNle]LCGGG[Pra]-OH; thioether N-14),10 to 99
2,CCCC[C@H]1C(=O)N(C)[C@@H](CCCC)C(=O)N[C@@H](CCCNC(=N)N)C(=O)N[C@H](C(=O)NCCCCCCCCCCC(N)=O)CSCC(=O)N[C@@H](Cc2ccc(O)cc2)C(=O)N(C)[C@@H](C)C(=O)N[C@@H](CC(=O)O)C(=O)N2CCC[C@H]2C(=O)N[C@@H](Cc2cnc[nH]2)C(=O)N[C@@H](CC(C)C)C(=O)N2C[C@H](O)C[C@H]2C(=O)N[C@@H](Cc2c[nH]c3ccccc23)C(=O)N[C@@H](CO)C(=O)N[C@@H](Cc2c[nH]c3ccccc23)C(=O)N1C [Example 11064] ({CH2CO}-Y[NMeA]DPHL[Hyp]WSW[NMeNle][NMeNle]RC[Aun]-NH2; thioether N-14),0.3 to 9.9
3,C#CC[C@H](NC(=O)CNC(=O)[C@@H]1CSCC(=O)N[C@@H](Cc2ccc(O)cc2)C(=O)N(C)[C@@H](C)C(=O)N[C@@H](CC(N)=O)C(=O)N2CCC[C@H]2C(=O)N[C@@H](CN)C(=O)N[C@@H](CC(C)C)C(=O)N2C[C@H](O)C[C@H]2C(=O)N[C@@H](Cc2c[nH]c3ccccc23)C(=O)N[C@@H](CCN)C(=O)N[C@@H](Cc2cn(CC(=O)O)c3ccccc23)C(=O)N(C)[C@@H](CCCC)C(=O)N(C)[C@@H](CCCC)C(=O)N[C@@H](CC(C)C)C(=O)N1)C(N)=O [INT 1300W] ({CH2CO}-Y[NMeA]NP[Dap]L[Hyp]W[Dab][Trp(1-CH2COOH)][NMeNle][NMeNle]LCG[Pra]-NH2; thioether N-14),10 to 99
4,CCCC[C@H]1C(=O)N(C)[C@@H](CCCC)C(=O)N[C@@H](CC(C)C)C(=O)N[C@H](C(=O)NCC(=O)N[C@@H](CC(=O)NCCCCC(=O)NCC[C@H](NC(=O)CCCCCCCCCCCCCCCCC(=O)O)C(=O)O)C(=O)O)CSCC(=O)N[C@@H](Cc2ccc(O)cc2)C(=O)N2CCCC[C@H]2C(=O)N[C@@H](CC(N)=O)C(=O)N2CCC[C@H]2C(=O)N[C@@H](CN)C(=O)N[C@@H](CC(C)C)C(=O)N2C[C@H](O)C[C@H]2C(=O)N[C@@H](Cc2c[nH]c3ccccc23)C(=O)N[C@@H](CCN)C(=O)N[C@@H](Cc2cn(CC(=O)O)c3ccccc23)C(=O)N1C [Example 13164] ({CH2CO}-Y[Pip]NP[Dap]L[Hyp]W[Dab][Trp(1-CH2COOH)][NMeNle][NMeNle]LCG[βAsp][Ava]-X9; thioether N-14),0.3 to 9.9
5,CCCCCCCCCCCCCC(=O)N[C@H](CCC(=O)NCCCC[C@H](NC(=O)CCC(=O)NCCCOCCOCCOCCCNC(=O)CNC(=O)[C@@H]1CSCC(=O)N[C@@H](Cc2ccc(O)cc2)C(=O)N(C)[C@@H](C)C(=O)N[C@@H](CC(=O)O)C(=O)N2CCC[C@H]2C(=O)N[C@@H](Cc2cnc[nH]2)C(=O)N[C@@H](CC(C)C)C(=O)N2C[C@H](O)C[C@H]2C(=O)N[C@@H](Cc2c[nH]c3ccccc23)C(=O)N[C@@H](CO)C(=O)N[C@@H](Cc2c[nH]c3ccccc23)C(=O)N(C)[C@@H](CCCC)C(=O)N(C)[C@@H](CCCC)C(=O)N[C@@H](CCCNC(=N)N)C(=O)N1)C(N)=O)C(=O)O [Example 11125] ({CH2CO}-Y[NMeA]DPHL[Hyp]WSW[NMeNle][NMeNle]RCG-X22; thioether N-14),10 to 99
6,CCCC[C@H]1C(=O)N(C)[C@@H](CCCC)C(=O)N[C@@H](CCC(=O)O)C(=O)N[C@H](C(=O)N[C@@H](Cc2cn(CCC(NC(=O)CCCCCCCCCCCCCCCCC(=O)O)C(=O)O)nn2)C(=O)O)CSCC(=O)N[C@@H](Cc2ccc(O)cc2)C(=O)N(C)[C@@H](C)C(=O)N[C@@H](CC(N)=O)C(=O)N2CCC[C@H]2C(=O)N[C@@H](CN)C(=O)N[C@@H](CC(C)C)C(=O)N2C[C@H](O)C[C@H]2C(=O)N[C@@H](Cc2c[nH]c3ccccc23)C(=O)N[C@@H](CCN)C(=O)N[C@@H](Cc2cn(CC(=O)O)c3ccccc23)C(=O)N1C (stereo partly shown) [Example 13130],0.3 to 9.9

# From patent US10633419B2, “Immunomodulators” (BRISTOL-MYERS SQUIBB COMPANY, priority 2014, dated 2020)
